Experimental findings from the SangsterLogP compilation are described below.

Consider `CCCOCC(C)OCC(C)O` (centres undefined), for which the logP is 0.99. Under `CCCOC(C)COC(C)CO` (centres undefined) stands 0.99; under `COCC(C)OCC(C)OC(C)=O` (centres undefined), 0.8.

Consider `COC(C)COC(C)COC(C)CO` (centres undefined), for which the logP was 0.31. Under `COC(C)COC(C)=O` (centres undefined) stands 0.43; under `COCC(C)OCC(C)OCC(C)O` (centres undefined), 0.31; under `CC(CO)Oc1ccccc1` (centres undefined), 1.5. The value for `COC(C)COC(C)CO` (centres undefined) was -0.06; that for `CCCCOC(C)CO` (centres undefined) was 1.15. The value for `CCCOC(C)CO` (centres undefined) was 0.62; that for `CCCCOC(C)COC(C)COC(C)CO` (centres undefined) was 1.9; that for `CCCCOCC(C)O` (centres undefined) was 1.15. Turning to `COCC(C)O` (centres undefined), the logP was -0.44. Under `COC(C)COC(C)COC(C)=O` (centres undefined) stands 0.8; under `CCCCOCC(C)OCC(C)O` (centres undefined), 1.52. The value for `CCCCOCC(C)OCC(C)OCC(C)O` (centres undefined) was 1.9. `CC(O)COc1ccccc1` (centres undefined): the logP amounted to 1.5. Under `COCCCO` stands -0.44; under `CCCOCC(C)O` (centres undefined), 0.62.
